# From patent US7781594B2, “5-(4-methanesulfonyl-phenyl)-thiazole derivatives for the treatment of acute and chronic inflammatory diseases” (Faes Farma, S.A., priority 2008, dated 2010)
# “Also recorded” adds a separate entry of the source.
# Experiments:
# Type in all cases: cell-based, human
# [1] = tested on: IFN-gamma; assay: IFN-gamma production by PBMC from patients with rheumatoid arthritis, CBA
# Procedure: (§1) CBA protocol was followed according to the manufacturer's instructions. The election of microparticles was performed following the summary of FIG. 1.
# (§2) The acquisition on samples was performed with the BD FACS Array Bioanalyser System (FACSArray, Becton Dickinson, San José, Calif., USA) and the analysis of the results was completed with the software FCAP Array (Becton Dickinson) in a PC computer.
# Briefly, the experimental protocol consisted of a plate pre-washing out with Wash Buffer. After decantation, the mixture of capture microparticles was re-suspended in the vortex. Standards and samples were added in the adequate dilution. After permanent stirring incubation during 1 h, the PE detection reagent was added and incubated again during 2 h at room temperature. […]
# PBMC (5×10^4 cells/well) from 7 patients with rheumatoid arthritis were cultured in duplicate 200 μl of complete medium supplement with the highest solvent concentration (10^−6 M), and 10^−6 M, 10^−7 M and 10^−8 M of compound 12, in the presence and absence either of LPS (10 μg/ml), or anti-CD3 (12.5 ng/ml)+anti-CD28 (⅓×10^5), during 24 hours. Culture supernatants were frozen at −20° C. and IFN-gamma concentration was assessed by BD FACS Array Bioanalyser by using CBA Flex Set, specific to determine IFN-gamma concentration, following the manufacturer instructions.
# [2] = tested on: IL-10; assay: IL-10 production by PBMC from healthy volunteers, CBA; settings: FIG. 9
# Procedure: as §1, §2
# Briefly, the experimental protocol consisted of a plate pre-washing out with Wash Buffer. After decantation, the mixture of capture microparticles was re-suspended in the vortex. Standards and samples were added in the adequate dilution. After permanent stirring incubation during 1 h, the PE detection reagent was added and incubated again during 2 h at room temperature. After a washing-out, the acquisition was performed in the flow cytometer.
# The effects of compound 12 on IL-10 production by the PBMC from healthy volunteers and patients with rheumatoid arthritis were investigated in the presence and absence of LPS stimulation and with the combination of monoclonal antibodies anti-CD3 and anti-CD28. […]
# [3] = tested on: PBMC from healthy volunteers; assay: Proliferative response of PBMC, 3H-thymidine incorporation; settings: absence or presence of PHA, PHA plus IL-2, or anti-CD3 + anti-CD28, 4 days, FIGS. 11a and 11b
# Procedure: Faced against a mitogen stimulation, lymphocytes suffer a blastogenesis and cellular differentiation process. The method used to quantify the cellular proliferation was the assay of the incorporation of ^3[H]-Thymidine to the DNA de novo synthesized, and the emission of betha-radiation from the cellular cultures dried extracts (to which the tritiated base was added) was detected before its ending and harvesting. In the different experiments performed to study the proliferation, the purified cellular preparations were incubated in 96 microwells plain bottom plates at concentrations of 5×10^4 cells/well (200 μl final volume), in the presence of different concentrations of various mitogens with triplicate repetitions and along 4 days of culture.
# The response to a specific stimuli depended on the density and cell type studied, as well as of the culture time and of the mitogenic agent concentration. […]
# PBMC was cultured during 4 days (50,000 cells per well) at 37° C. and 5% CO2 atmosphere (Cell incubator HERA Cell 150, Thermoscientific, Thermoelectron, 63505 Lagenselbold, GE) in complete culture medium. […] The DNA-incorporated radioactive was quantified by using a betha particles counter Wallac Oy.
compound,measurement,setting,value
"Cc1nc(OC2CCCC2)c(-c2ccc(S(C)(=O)=O)cc2)s1 [Compound 12, 4-cyclopentyloxy-5-(4-methylsulfonyl-phenyl)-2-methyl-thiazole]",Effect on IFN-gamma production by PBMC stimulated with anti-CD3 and anti-CD28,"[1]; patients with rheumatoid arthritis, 10^−6 M, 10^−7 M and 10^−8 M, p<0.05, FIG. 6",significantly lowered
same,"Effect on IFN-gamma secretion by PBMC, spontaneous or LPS-induced",[1]; printed 'from healthy volunteers' in the paragraph on patients with rheumatoid arthritis,modified neither the spontaneous IFN-gamma secretion nor the LPS-induced
same,Effect on IL-10 production by PBMC in the presence and absence of LPS or anti-CD3 + anti-CD28,[2],no effects; also recorded: No statistical differences were found
same,Effect on the proliferative response of PBMC,[3],did not significantly modify
